Measured values taken from ChEMBL document CHEMBL4417635, “2-hydroxyarylamide derivative or pharmaceutically acceptable salt thereof, preparation method thereof, and pharmaceutical composition for preventing or treating cancer containing same as active ingredient” (2013).

Experiments:
[1] = molecular target: Transmembrane protease serine 4 (Homo sapiens) (UniProt Q9NRS4); assay: (§1) Inhibition of TMPRSS4 serine protease domain (Val 205 to Leu 437 residues) (unknown origin) expressed in Escherichia coli BL21 (DE3) at 100 uM using […]-Gln-Ala-Arg-7-amido-4-methylcoumarin hydrochloride substrate and measured for 5 mins at 5 mins intervals by fluorescence based assay relative to control
Sequence of Transmembrane protease serine 4 (Homo sapiens) (Q9NRS4 whole entry, the tested form may be a part): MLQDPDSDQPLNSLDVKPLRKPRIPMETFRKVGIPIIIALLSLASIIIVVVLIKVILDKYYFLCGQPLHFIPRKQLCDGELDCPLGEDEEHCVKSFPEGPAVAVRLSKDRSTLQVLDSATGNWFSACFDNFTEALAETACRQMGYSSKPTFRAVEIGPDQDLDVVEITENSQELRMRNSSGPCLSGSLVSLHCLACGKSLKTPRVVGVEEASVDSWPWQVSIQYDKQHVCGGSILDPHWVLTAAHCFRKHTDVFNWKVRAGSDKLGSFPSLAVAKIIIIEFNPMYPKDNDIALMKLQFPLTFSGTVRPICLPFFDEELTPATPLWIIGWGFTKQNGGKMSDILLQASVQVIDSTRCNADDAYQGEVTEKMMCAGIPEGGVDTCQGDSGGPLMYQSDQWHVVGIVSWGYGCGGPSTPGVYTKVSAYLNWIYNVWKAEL

[2] = molecular target: Transmembrane protease serine 4 (Homo sapiens) (UniProt Q9NRS4); assay: as §1, with “30” for “100”
[3] = molecular target: Transmembrane protease serine 4 (Homo sapiens) (UniProt Q9NRS4); assay: Inhibition of TMPRSS4 serine protease domain (Val 205 to Leu 437 residues) (unknown origin) expressed in Escherichia coli BL21 (DE3) using […]-Gln-Ala-Arg-7-amido-4-methylcoumarin hydrochloride substrate and measured for 5 mins at 5 mins intervals by fluorescence based assay relative to control
[4] = molecular target: Transmembrane protease serine 4 (Homo sapiens) (UniProt Q9NRS4); assay: Inhibition of TMPRSS4 (unknown origin) expressed in human SW480 cells assessed as reduction in cell migration at 2 uM incubated for 48 hrs by crystal violet staining based assay relative to control
[5] = molecular target: Transmembrane protease serine 4 (Homo sapiens) (UniProt Q9NRS4); assay: as §1, with “10” for “100”
[6] = molecular target: Transmembrane protease serine 4 (Homo sapiens) (UniProt Q9NRS4); assay: Inhibition of TMPRSS4 (unknown origin) expressed in human SW480 cells assessed as reduction in cell migration at 0.8 uM incubated for 48 hrs by crystal violet staining based assay relative to control
[7] = molecular target: Transmembrane protease serine 4 (Homo sapiens) (UniProt Q9NRS4); assay: Inhibition of TMPRSS4 (unknown origin) expressed in human SW480 cells assessed as reduction in cell migration at 25 uM incubated for 48 hrs by crystal violet staining based assay relative to control
[8] = molecular target: Transmembrane protease serine 4 (Homo sapiens) (UniProt Q9NRS4); assay: Inhibition of TMPRSS4 (unknown origin) expressed in human SW480 cells assessed as reduction in cell migration at 5 uM incubated for 48 hrs by crystal violet staining based assay relative to control

| SMILES | inhibition [1] [%] | inhibition [2] [%] | inhibition [3] | inhibition [4] [%] | inhibition [5] [%] | inhibition [6] [%] | inhibition [7] [%] | inhibition [8] [%] |
| --- | --- | --- | --- | --- | --- | --- | --- | --- |
| N#Cc1ccc(NC(=O)c2cc(Cl)ccc2O)cc1C(F)(F)F | 100 | 88 | Dose-dependent effect | 81 | – | – | – | – |
| O=C(Nc1cc(C(F)(F)F)cc(C(F)(F)F)c1)c1cc(Cl)ccc1O | 100 | 96 | Dose-dependent effect | – | 64 | 76 | – | – |
| O=C(Nc1cnc2ccccc2c1)c1cc(Cl)ccc1O | 75 | 8 | Dose-dependent effect | – | – | – | 51 | – |
| N#Cc1ccc(NC(=O)c2cc(Cl)ccc2O)c(Cl)c1 | 100 | 92 | Dose-dependent effect | 54 | – | – | – | – |
| O=C(Nc1nc(-c2ccccc2)cs1)c1cc(Cl)ccc1O | 98 | 91 | Dose-dependent effect | 75 | – | – | – | – |
| COc1cc(NC(=O)c2cc(Cl)ccc2O)cc(C(F)(F)F)c1 | 99 | 88 | Dose-dependent effect | – | 67 | 49 | – | – |
| O=C(Nc1ccc(Cl)c(C(F)(F)F)c1)c1cc(Cl)ccc1O | 99 | 95 | Dose-dependent effect | – | 71 | 68 | – | – |
| O=C(Nc1nnc(C(F)(F)F)s1)c1cc(Cl)ccc1O | 100 | 75 | Dose-dependent effect | – | – | – | – | 29 |
| N#Cc1ccc(NC(=O)c2cc(Cl)ccc2O)nc1 | – | 63 | Dose-dependent effect | – | 26 | – | – | 44 |
